Results as given in PubChem BioAssay AID1625 (Sanford-Burnham Center for Chemical Genomics, 2009).
Active and inactive are the calls of the source.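 How the source made its calls: active means z-score above 3 at 5 µM with at least 500 cells counted in the well; inconclusive means wells under 500 cells, flagged as cytotoxic or low count; inactive means the rest.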

System: MIN6 insulin promoter-GFP reporter, high-content imaging
Assay: insulin promoter activators in MIN6 cells, imaging, high-content screening, mouse beta cells (AID 1625)

SMILES | EC50
CCCCn1nc(-c2ccccc2)c2nc3ccccc3nc21 | > 16 µM (inactive)
O=C1S/C(=C/c2ccc(N3CCOCC3)o2)C(=O)N1Cc1c(F)cccc1Cl | 1.76 µM
Cc1nn(C)cc1N1C(=O)c2cccc3c(N)ccc(c23)C1=O | > 16 µM (inactive)
Nc1c(C(=O)N/N=C/c2cccnc2)oc2nc(-c3ccccc3)cc(-c3ccco3)c12 | > 16 µM (inactive)
CN1CC=C2C(C#N)=C(N)C(C#N)(C#N)C(Cc3ccccc3)C2C1 (stereo unspecified) | 11.7 µM (inactive)
COC(=O)c1cc2c(-c3ccccc3)cc3ccccn3c-2c1C(=O)OC | > 16 µM (inactive)
COc1ccc(NC(=O)/C(C#N)=C\c2ccc(N3CCOCC3)o2)cc1 | 9.14 µM
Cc1n[nH]c(C)c1N1C(=O)c2cccc3c(N4CCCCCC4)ccc(c23)C1=O | 9.13 µM
CCCCN1C(=O)C2(NNc3ccccc3O2)c2ccccc21 (stereo unspecified) | > 16 µM (inactive)
O=[N+]([O-])c1ccc(/C=C/C2=NN(c3ccccc3)C(c3ccco3)C2)o1 (stereo unspecified) | > 16 µM (inactive)
COc1cc2c3nnc(-c4ccc(F)cc4)c-3cn(Cc3ccc(F)cc3)c2cc1OC | 5.41 µM
COc1ccc(C(=O)c2sc3nc(-c4ccccc4)ccc3c2N)cc1OC | > 16 µM (inactive)
CN1CC=C2C(C#N)=C(N)C(C#N)(C#N)C(c3cccc(Cl)c3Cl)C2C1 (stereo unspecified) | 11.9 µM (inactive)
Nc1c(C(=O)N/N=C/c2cccnc2)oc2nc(-c3ccco3)cc(-c3ccco3)c12 | > 16 µM (inactive)
O=C(/C=C/c1cn(CC(O)CN2CCCCCC2)c2ccccc12)c1cccs1 (stereo unspecified) | > 16 µM (inactive)
CCN1CC=C2C(C#N)=C(N)C(C#N)(C#N)C(c3cc(Cl)ccc3Cl)C2C1 (stereo unspecified) | 8.66 µM
COc1ccccc1NS(=O)(=O)c1cc([N+](=O)[O-])ccc1N/N=C/c1sc(N2CCOCC2)nc1-c1ccccc1 | 1.83 µM
N#Cc1cccc(NC(=O)CSc2ccc3c4c(cccc24)C(=O)c2ccccc2-3)c1 | 14.7 µM (inactive)
N#C/C(=C/c1ccc(N2CCOCC2)o1)c1ccc(Br)cc1 | 12.8 µM (inactive)
CC(C)N1CC=C2C(C#N)=C(N)C(C#N)(C#N)[C@H](c3ccoc3)[C@H]2C1 | 8.51 µM
CN1CC=C2C(C#N)=C(N)C(C#N)(C#N)[C@H](c3cccc(Cl)c3)C2C1 (stereo partly specified) | 8.14 µM
C=CCN1C(=O)/C(=C/c2ccc(N(C)C)cc2)S/C1=N\c1nnc(CC)s1 | 3.86 µM
CCOC(=O)Cc1csc(NC(=O)c2sc3nc4c(C)cc(C)cc4cc3c2N)n1 | > 16 µM (inactive)
Nc1c(C(=O)Nc2nc3ccccc3s2)sc2nc(-c3cccs3)ccc12 | 12.8 µM (inactive)

SMILES | EC50
Cc1ccc(N2C(=O)c3cccc4c(N5CCN(C)CC5)ccc(c34)C2=O)c2cccnc12 | 10.3 µM (inactive)
O=[N+]([O-])c1ccc(N/N=C/c2ccc[nH]2)cc1 | > 16 µM (inactive)
N#C/C(=C/c1ccc(N2CCCCC2)o1)C(=O)Nc1ccc(Cl)cc1 | 0.482 µM
CCc1cccc2cc3c(N)c(C(=O)Nc4ccc(S(=O)(=O)N5CCCC5)cc4)sc3nc12 | 10.2 µM (inactive)
Cc1cc(C)cc(N=Cc2[nH]c3ccc(Br)c(Cl)c3c2O)c1 | 3.42 µM
COc1ccc2c(n1)Sc1nc3ccccc3nc1N2 | > 16 µM (inactive)
COc1cc2c(cc1OC)C1=CC(=O)C(=O)N1C(C)(C)C2 | 11.5 µM (inactive)
CCCN1C(=O)/C(=C/c2c(NCCCOC(C)C)nc3c(C)cccn3c2=O)SC1=S | > 16 µM (inactive)
CCN(CC)c1ccc(/C=C2\SC(=O)N(C(C)C)C2=O)o1 | 4.61 µM
Cc1nonc1NC(=O)CSc1nc2c(C)cccc2cc1C#N | > 16 µM (inactive)
Cc1cccc(N=Cc2[nH]c3ccc(Br)c(Cl)c3c2O)c1 | 4.86 µM
CCCN1C(=O)/C(=C/c2c(N3CCNC(=O)C3CC(=O)OCC)nc3c(C)cccn3c2=O)SC1=S (stereo unspecified) | > 16 µM (inactive)
CCCN1C(=O)/C(=C\C=C2\N(CC)c3ccccc3C2(C)C)SC1=S | > 16 µM (inactive)
CCNc1ccc2noc3c2c1C(=O)c1ccccc1-3 | > 16 µM (inactive)
O=C1c2cccc3c(O)ccc(c23)C(=O)N1Cc1ccco1 | 13.7 µM (inactive)
C=CCSc1nnc(C)c(/C=C/Nc2ccc(Cl)cc2)n1 | > 16 µM (inactive)
CCN(CC)c1ccc(/C=C2/SC(=O)N(C(C)C)C2=O)o1 | 4.26 µM
Cc1cccn2c(=O)c(/C=C3\SC(=S)N(CC(C)C)C3=O)c(NCCCOC(C)C)nc12 | > 16 µM (inactive)
CCCCCCN1C=CC(=C/C=C(\C#N)C(=O)OCC)C=C1 | 11 µM (inactive)
CCOC(=O)c1c(-c2ccc(C)cc2)csc1NC(=O)/C(C#N)=C/c1ccc(O)c(OC)c1 | > 16 µM (inactive)
CC(C)OC(=O)CN1C(=O)S/C(=C/c2ccc(N3CCCCC3)o2)C1=O | 1.7 µM
CNC(=O)c1c(NC(=O)c2ccc(S(=O)(=O)N3CCCc4ccccc43)cc2)sc2c1CCN(C)C2 | > 16 µM (inactive)
Cc1cc(N/N=C/c2ccc([N+](=O)[O-])o2)nc2ccccc12 | > 16 µM (inactive)
CCCN1C(=O)S/C(=C/c2ccc(N3CCOCC3)o2)C1=O | 8.06 µM

SMILES | EC50
CC(C)N1CC=C2C(C#N)=C(N)C(C#N)(C#N)C(c3ccccc3)C2C1 (stereo unspecified) | 6 µM
CN1CC=C2C(C#N)=C(N)C(C#N)(C#N)C(c3ccsc3)C2C1 (stereo unspecified) | 10.4 µM (inactive)
CCN(CC)c1ccc(/C=C(\C#N)C(=O)c2ccc(Br)cc2)cc1 | 12 µM (inactive)
CN1/C(=C/C=C(C#N)C#N)C=Cc2ccccc21 | > 16 µM (inactive)
Cn1cc(/C=C2\SC(=S)N(NC(=O)c3ccccc3)C2=O)c2ccccc21 | > 16 µM (inactive)
COc1ccc(C2C(C(C)=O)=C(C)N=c3s/c(=C\c4cc(C)n(C)c4C)c(=O)n32)c(OC)c1 (stereo unspecified) | 8.89 µM
COc1ccc(C(=O)/C=C/c2ccc(N(C)C)cc2)c(OC)c1 | 6.31 µM
CCN1CCc2c(sc(NC(=S)NC(=O)c3ccc(Cl)cc3)c2C(N)=O)C1 | 14.1 µM (inactive)
CCCCN1C(=O)/C(=C/C=C2\Oc3ccccc3N2CC)SC1=S | 0.958 µM
Oc1ccc(/C=N/Nc2ccnc3cc(Cl)ccc23)c(O)c1 | > 16 µM (inactive)
N#C/C(=C\c1ccc(N2CCOCC2)o1)c1nc2ccccc2[nH]1 | 3.42 µM
Cn1c(=O)c(N)c2c3c(c(Br)ccc31)C(=O)c1ccccc1-2 | 8.88 µM
O=c1oc2cc(O)ccc2cc1-c1nc2c(s1)CCc1ccccc1-2 | 10.2 µM (inactive)
COc1ccc(N=C2NC(=O)S/C2=C\c2ccc(N(C)C)cc2)cc1 | > 16 µM (inactive)
Cn1cc(/C=C2\SC(=S)N(NC(=O)c3ccccc3Cl)C2=O)c2ccccc21 | > 16 µM (inactive)
N#CC1CC(c2ccc([N+](=O)[O-])cc2)=NN1c1ccc([N+](=O)[O-])cc1 (stereo unspecified) | > 16 µM (inactive)
COc1ccc(/C=C2\CC/C(=C\c3ccc(OC)cc3OC)C2=O)c(OC)c1 | > 16 µM (inactive)
CCCSc1nc2sc3c(c2c(=O)[nH]1)CCN(Cc1ccccc1)C3 | > 16 µM (inactive)
COc1cc2c3nnc(-c4ccccc4)c-3cn(Cc3ccccc3F)c2cc1OC | 3.09 µM
N#C/C(=C\c1ccc(N2CCOCC2)o1)c1ccccc1 | > 16 µM (inactive)
Cc1c2ccccc2nc2c(F)c(NC(C)C)c(F)c(F)c12 | > 16 µM (inactive)
O=[N+]([O-])c1ccc(N2N=C(c3ccco3)CC2c2ccccc2)cc1 (stereo unspecified) | > 16 µM (inactive)
CC(=O)Oc1ccc2c(c1)Oc1cc(OC(C)=O)ccc1C21OC(=O)c2ccccc21 | 0.439 µM
